We go through 16 compounds from PubChem BioAssay (NCI).

Test systems include A549 NSCLC; MALME-3M melanoma; MOLT-4 leukemia; OVCAR-5 ovarian; SK-MEL-2 melanoma; SNB-75 CNS; U251 CNS; HOP-62 NSCLC; MDA-MB-435; T-47D breast; HS 578T breast.
Test in all cases: NCI tumour cell line growth inhibition, 48 h

Molecules are shown by their SMILES.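 Test compounds were applied to cells in 96-well plates for 48 hours at 5 doses. Here, GI50 denotes the concentration required for 50% inhibition of growth. The concentration for full growth arrest is given as TGI.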

Turning to `CCOC(=O)/C(=C/c1ccco1)P(=O)(OCC)OCC`, the TGI in the assay with A549 NSCLC, in the assay with MALME-3M melanoma, with MOLT-4 leukemia, in the assay on OVCAR-5 ovarian, in the assay with SK-MEL-2 melanoma and in the assay on SNB-75 CNS was above 100 µM each time. In the assay with U251 CNS, this compound registered a TGI above 100 µM.
Consider `NC(=O)NC(=NCc1ccccc1)NCc1ccccc1`, for which the TGI in the assay with A549 NSCLC, with HOP-62 NSCLC, with SK-MEL-2 melanoma and in the assay with U251 CNS was above 100 µM in each case.
`COC(=O)c1sc2ncc3c(c2c1N)CC(C)CC3` (configuration not stated): the TGI in the assay with A549 NSCLC, in the assay on HOP-62 NSCLC, in the assay on MALME-3M melanoma, with MDA-MB-435, with MOLT-4 leukemia and in the assay with OVCAR-5 ovarian was above 100 µM in each case. The TGI with SK-MEL-2 melanoma, with SNB-75 CNS, in the assay with T-47D breast and in the assay on U251 CNS was above 100 µM each time.
With `CC1(C)OC(CCO)CN1C(=O)OCc1ccccc1` (configuration not stated), the TGI in the assay with A549 NSCLC, in the assay on MALME-3M melanoma, with MDA-MB-435, with MOLT-4 leukemia, in the assay with OVCAR-5 ovarian and with SK-MEL-2 melanoma was above 100 µM in each case. The TGI with SNB-75 CNS and in the assay with U251 CNS was above 100 µM in each case.
As to `CCOC(=O)c1c(NC(=S)Nc2ccc(C)cc2)sc2c1CCN(C)C2`, the TGI with A549 NSCLC, in the assay with HOP-62 NSCLC, in the assay on HS 578T breast, with MOLT-4 leukemia, in the assay with OVCAR-5 ovarian and in the assay with SK-MEL-2 melanoma was above 100 µM each time. In addition, the TGI in the assay on SNB-75 CNS is 0.0946 µM; in the assay on T-47D breast, above 100 µM.
In the case of `O=C(c1ccccc1)[C@H]1Nc2cnccc2C2c3ccccc3CC21` (some centres not stated), the TGI in the assay with A549 NSCLC was 74.5 µM; with HOP-62 NSCLC, above 71.4 µM; in the assay on MALME-3M melanoma, 27.4 µM; with MOLT-4 leukemia it was 23.1 µM; in the assay on OVCAR-5 ovarian, 74.1 µM; in the assay with SK-MEL-2 melanoma it was 29.9 µM. Besides, the TGI was 71.9 µM in the assay on SNB-75 CNS and 48.8 µM in the assay with U251 CNS.
For the compound `COC(=O)C(=O)C(C(=O)C(=O)Nc1cc([N+](=O)[O-])ccc1C#N)c1nc2ccccc2[nH]c1=O` (configuration not stated), the TGI in the assay on A549 NSCLC, in the assay on HOP-62 NSCLC, in the assay with MALME-3M melanoma, in the assay on MOLT-4 leukemia and in the assay with SNB-75 CNS was above 100 µM in each case.
`C=C1CC=CC(C)(C)C1C/C=C(\C)C(O)CBr` (configuration not stated): the TGI in the assay with A549 NSCLC, with HOP-62 NSCLC, in the assay on HS 578T breast, in the assay on MDA-MB-435, in the assay on MOLT-4 leukemia and in the assay on OVCAR-5 ovarian was above 100 µM in each case. The TGI in the assay with SK-MEL-2 melanoma and in the assay with U251 CNS was above 100 µM in each case.
As to `C=C1CC2C(=O)N(c3ccccc3)C(=O)C2CC1n1[nH]c(=O)n(Cc2ccccc2)c1=O` (configuration not stated), the TGI in the assay with A549 NSCLC, in the assay on HOP-62 NSCLC, in the assay with MALME-3M melanoma, with MOLT-4 leukemia, with OVCAR-5 ovarian and in the assay with SK-MEL-2 melanoma was above 100 µM in each case. Also, the TGI in the assay with SNB-75 CNS and in the assay on U251 CNS was above 100 µM throughout.
As to `Brc1ccc2c(c1)-c1nc3c(cc1CC2)CCc1ccc(Br)cc1-3`, the TGI in the assay with A549 NSCLC, with HOP-62 NSCLC, in the assay on MALME-3M melanoma, in the assay on MDA-MB-435, with MOLT-4 leukemia and in the assay with OVCAR-5 ovarian was above 100 µM each time. The TGI in the assay with SK-MEL-2 melanoma, in the assay with SNB-75 CNS, with T-47D breast and in the assay with U251 CNS was above 100 µM each time.
For the compound `COC(=O)C(CCCCNC(=O)CNC(=O)OCc1ccccc1)NC(=O)C(CCCCNC(=O)CNC(=O)OCc1ccccc1)NC(=O)OCc1ccccc1` (configuration not stated), the TGI in the assay on A549 NSCLC, in the assay with HOP-62 NSCLC, in the assay on MALME-3M melanoma, in the assay with MDA-MB-435, with MOLT-4 leukemia and with OVCAR-5 ovarian was above 100 µM throughout. Moreover, the TGI was 54.2 µM in the assay with SK-MEL-2 melanoma, above 100 µM with SNB-75 CNS, above 100 µM in the assay with T-47D breast and above 100 µM in the assay with U251 CNS.
For the compound `CCOC(=O)C(NC(=O)c1ccc(N=NN(C)C)cc1)C(C)C` (configuration not stated), the TGI in the assay on A549 NSCLC, in the assay with HOP-62 NSCLC, in the assay on MALME-3M melanoma, in the assay on MOLT-4 leukemia, in the assay with OVCAR-5 ovarian and with SK-MEL-2 melanoma was above 100 µM each time. Moreover, the TGI in the assay on SNB-75 CNS and with U251 CNS was above 100 µM throughout.
For `CC1=C(C(=O)NNC(=O)CC#N)CC(C(=O)NNC(=O)CC#N)=C(C)N1`, the TGI in the assay with A549 NSCLC, in the assay on HOP-62 NSCLC, with MDA-MB-435, in the assay on MOLT-4 leukemia, in the assay on OVCAR-5 ovarian and in the assay on SK-MEL-2 melanoma was above 100 µM throughout. The TGI with SNB-75 CNS, with T-47D breast and in the assay on U251 CNS was above 100 µM throughout.
As for `NC(CCSCC(F)F)C(=O)O` (configuration not stated), the TGI with A549 NSCLC, in the assay on HOP-62 NSCLC, in the assay with MALME-3M melanoma, in the assay on MOLT-4 leukemia, in the assay on OVCAR-5 ovarian and in the assay with SNB-75 CNS was above 100 µM throughout. In addition, in the assay with U251 CNS, the TGI was above 100 µM.
`CC1(C)OC(=O)C=C([O-])O1.CC1(C)OC(=O)C=C([O-])O1.O=c1c(O)c(-c2ccc([O-])cc2[O-])oc2cc(O)cc(O)c12.[Ti+4]`: the TGI with A549 NSCLC is above 100 µM; in the assay on HOP-62 NSCLC, above 100 µM; with MALME-3M melanoma it was above 100 µM; with MOLT-4 leukemia it was above 100 µM; in the assay on OVCAR-5 ovarian, above 100 µM; with SK-MEL-2 melanoma, 67.5 µM. The compound also came in with a TGI in the assay on SNB-75 CNS of 60.4 µM. For the same compound, the GI50 in the assay on MOLT-4 leukemia is 31.6 µM.
As for `C/C(=N\Nc1nc2ccccc2s1)c1cccnn1`, the TGI with A549 NSCLC was above 100 µM; in the assay with HOP-62 NSCLC, 14.5 µM; with HS 578T breast it was 44.1 µM; in the assay with MDA-MB-435, above 100 µM; in the assay on MOLT-4 leukemia, above 100 µM; in the assay on OVCAR-5 ovarian, above 100 µM. Moreover, the TGI in the assay on SK-MEL-2 melanoma was 36.8 µM; with SNB-75 CNS it was 30.7 µM; in the assay on U251 CNS, above 100 µM.
